The experiment has as its target T1, dOR35a (Drosophila melanogaster, UniProt Q9V3Q2).
T1 construct: gene Or35a; pIB-DmOr35a transiently expressed in Sf9 cells
T1 sequence (Q9V3Q2 1-409): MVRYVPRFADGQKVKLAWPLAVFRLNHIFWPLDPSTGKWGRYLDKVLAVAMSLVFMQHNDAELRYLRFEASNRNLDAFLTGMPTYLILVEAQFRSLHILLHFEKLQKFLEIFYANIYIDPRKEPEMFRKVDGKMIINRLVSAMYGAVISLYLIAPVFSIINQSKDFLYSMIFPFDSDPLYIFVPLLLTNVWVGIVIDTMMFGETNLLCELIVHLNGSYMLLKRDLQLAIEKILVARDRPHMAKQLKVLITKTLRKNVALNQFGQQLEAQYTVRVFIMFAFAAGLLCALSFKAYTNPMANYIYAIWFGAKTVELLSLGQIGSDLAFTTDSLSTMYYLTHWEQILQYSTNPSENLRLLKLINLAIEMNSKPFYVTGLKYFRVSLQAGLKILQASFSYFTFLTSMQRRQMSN
Nature of the experiment: Fluo4 calcium imaging of receptor transiently expressed in Sf9 cells, concentration-response. Format: cell-based.

The EC50 is the concentration at which the effect is half-maximal.

Take `CCCCCCCCO` [1-octanol]: the EC50 was 0.0227 µM.
For `C=CC(O)CCCCC` (centres unmarked) [1-octen-3-ol], the EC50 turned out to be 3.46 µM.

The record behind these values is publication PMC2712691, “Bio-Benchmarking of Electronic Nose Sensors” (PLoS ONE, 2009).
